Drawing on ChEMBL document CHEMBL2074172, “Possible involvement of multiple P-glycoprotein-mediated efflux systems in the transport of verapamil and other organic cations across rat intestine” (Pharm Res, 1995), this text covers Activity for two compounds.

The test concerns the target Multidrug resistance protein 1a (Rattus norvegicus) (UniProt Q6PSM0). Put plainly: TP_TRANSPORTER: serosal to mucosal transport in SD rat intestinal segment. The class given is functional. The conditions noted are these: Sprague-Dawley, Intestine.

Chain of Multidrug resistance protein 1a (Rattus norvegicus) (Q6PSM0 as listed by the source): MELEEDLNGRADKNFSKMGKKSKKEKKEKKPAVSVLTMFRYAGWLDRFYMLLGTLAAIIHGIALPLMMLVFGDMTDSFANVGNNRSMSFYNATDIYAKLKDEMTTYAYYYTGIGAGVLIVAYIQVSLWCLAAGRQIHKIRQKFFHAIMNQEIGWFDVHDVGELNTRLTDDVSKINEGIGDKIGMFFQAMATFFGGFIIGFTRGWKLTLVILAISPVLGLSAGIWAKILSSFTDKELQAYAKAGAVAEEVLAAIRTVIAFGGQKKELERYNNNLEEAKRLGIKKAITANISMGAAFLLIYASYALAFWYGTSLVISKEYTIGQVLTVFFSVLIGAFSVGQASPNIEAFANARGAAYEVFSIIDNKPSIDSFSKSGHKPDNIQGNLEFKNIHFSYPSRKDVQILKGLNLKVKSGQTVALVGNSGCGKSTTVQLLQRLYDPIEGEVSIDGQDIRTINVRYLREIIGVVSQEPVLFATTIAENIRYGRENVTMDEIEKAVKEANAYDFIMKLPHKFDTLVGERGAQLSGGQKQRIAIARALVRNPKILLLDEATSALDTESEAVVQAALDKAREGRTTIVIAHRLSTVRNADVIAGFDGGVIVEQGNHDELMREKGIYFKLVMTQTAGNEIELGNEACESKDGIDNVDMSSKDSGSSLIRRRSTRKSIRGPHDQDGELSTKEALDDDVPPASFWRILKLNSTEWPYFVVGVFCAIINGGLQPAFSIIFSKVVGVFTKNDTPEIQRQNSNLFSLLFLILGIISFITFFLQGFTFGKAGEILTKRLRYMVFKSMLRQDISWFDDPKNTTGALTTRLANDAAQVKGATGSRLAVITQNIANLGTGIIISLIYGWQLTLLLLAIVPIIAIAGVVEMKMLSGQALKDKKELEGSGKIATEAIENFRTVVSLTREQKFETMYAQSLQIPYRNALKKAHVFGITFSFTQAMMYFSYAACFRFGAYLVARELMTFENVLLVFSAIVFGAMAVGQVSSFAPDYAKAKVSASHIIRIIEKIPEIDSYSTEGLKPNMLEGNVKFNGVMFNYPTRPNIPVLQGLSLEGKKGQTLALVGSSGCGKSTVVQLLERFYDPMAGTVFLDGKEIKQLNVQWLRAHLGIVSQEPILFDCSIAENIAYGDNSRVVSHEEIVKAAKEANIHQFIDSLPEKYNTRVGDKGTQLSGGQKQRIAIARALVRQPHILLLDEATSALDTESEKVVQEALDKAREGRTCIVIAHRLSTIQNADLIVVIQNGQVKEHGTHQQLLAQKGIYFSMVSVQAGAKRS

As for `COc1ccc(CCN(C)CCCC(C#N)(c2ccc(OC)c(OC)c2)C(C)C)cc1OC` (configuration not stated), the Activity entry is “substrate [+]”.

On to `CC(C)[N+](C)(CCOC(=O)C1c2ccccc2Oc2ccccc21)C(C)C`, for which the Activity result was “substrate [+]”.
